From ChEMBL document CHEMBL1128797, “Annohexocin, a novel mono-THF acetogenin with six hydroxyls, from Annona muricata (Annonaceae)” (Bioorg Med Chem Lett, 1995)
In brackets after ≈: the same amount, converted by molar mass.

Experiments:
A549 = assay: Cytotoxic activity was tested against human […] cell line A-549 (lung carcinoma); format: functional; conditions: read-out: ED50 (the source's name)
MCF7 = assay: Cytotoxic activity was tested against human MCF-7 (breast carcinoma) cell line; format: functional; conditions: read-out: ED50 (the source's name)
A498 = assay: Cytotoxic activity was tested against human A-498 (Kidney carcinoma) cell line; format: functional; conditions: read-out: ED50 (the source's name)
HT-29 = assay: Cytotoxic activity was tested against human HT-29 (colon adenocarcinoma) cell line; format: functional; conditions: read-out: ED50 (the source's name)
PC-3 = assay: Cytotoxic activity was tested against human PC-3 (prostate adenocarcinoma) cell line; format: functional; conditions: read-out: ED50 (the source's name)
MIA PaCa-2 [1] = assay: Cytotoxic activity was tested against humanPAC-2 (pancreatic carcinoma) cell line; format: functional; conditions: Homo sapiens, read-out: ED50 (the source's name)
[2] = Compound was tested for brine shrimp lethality (BST); format: organism-based; conditions: artemia, in vivo
MIA PaCa-2 [3] = assay: Cytotoxic activity was tested against human PAC-2 (pancreatici carcinoma) cell line; format: functional; conditions: read-out: ED50 (the source's name)

With `CCCCCCCCCCCCC(O)C1CCC(C(O)CCC(O)CC(O)CC(O)CCCC(O)CC2=CC(C)OC2=O)O1` (stereo not drawn) the EC50 (A549) was 0.34 µg/mL (≈ 0.541 µM), the EC50 (MCF7) was 2.26 µg/mL (≈ 3.59 µM) and the EC50 (A498) was 2.36 µg/mL (≈ 3.75 µM). It also gave an EC50 (HT-29) of 0.78 µg/mL (≈ 1.24 µM), an EC50 (PC-3) of 0.0195 µg/mL (≈ 0.031 µM) and an EC50 (MIA PaCa-2 [1]) of 0.77 µg/mL (≈ 1.22 µM). The LC50 [2] was 34.4 µg/mL (≈ 54.7 µM).

Work on `COc1cccc2c1C(=O)c1c(O)c3c(c(O)c1C2=O)C[C@@](O)(C(=O)CO)C[C@@H]3O[C@H]1C[C@H](N)[C@H](O)[C@H](C)O1` [DOXORUBICIN] yielded an EC50 (A549) of 0.0346 µg/mL (≈ 0.0637 µM), an EC50 (MIA PaCa-2 [3]) of 0.031 µg/mL (≈ 0.057 µM) and an EC50 (MCF7) of 0.43 µg/mL (≈ 0.791 µM). It also gave an EC50 (A498) of 0.0335 µg/mL (≈ 0.0616 µM), an EC50 (HT-29) of 0.0896 µg/mL (≈ 0.165 µM) and an EC50 (PC-3) of 0.33 µg/mL (≈ 0.607 µM).
